In ChEMBL document CHEMBL4390680, “In silico study of M18 aspartyl amino peptidase (M18AAP) of Plasmodium vivax as an antimalarial drug target” (Bioorg Med Chem, 2019):

Experiment: Inhibition of Plasmodium vivax aminopeptidase-M18

| Structure (SMILES) | pIC50 |
| --- | --- |
| COc1ccc(CCNC2CCN(Cc3ccccc3)CC2)cc1OC | 5.161 |
| COc1ccc(CCNc2c3ccccc3nc3ccccc23)cc1OC | 5.61 |
| Oc1ccc(CCNc2ccnc3ccccc23)cc1O | 5.409 |
| COc1ccc(CCN(C)c2c3ccccc3nc3ccccc23)cc1OC | 5.347 |
| Oc1ccc(CCNc2c3c(nc4ccccc24)CCCC3)cc1O | 5.443 |
| COc1ccc(CCN(C)c2ccnc3cc(Cl)ccc23)cc1OC | 5.24 |
| COc1ccc(C2CCN(c3ccnc4ccccc34)C2)cc1OC (stereo unspecified) | 5.699 |
| Oc1cccc(CCNc2ccnc3ccccc23)c1O | 5.569 |
| CCOc1ccc2nccc(NCCc3ccc(OC)c(OC)c3)c2c1 | 5.854 |
| O=c1ccn(CCNc2c3ccccc3nc3ccccc23)cc1OCc1ccccc1 | 5.328 |
| Oc1ccc(CCN2CCc3ccccc3C2)cc1O | 5.102 |
| COc1ccc(CCNc2c3ccccc3nc3ccccc23)cc1 | 5.959 |
| Cc1c(OCc2ccccc2)c(=O)ccn1CCNc1c2ccccc2nc2ccccc12 | 5.398 |
| Oc1ccc(C2CCN(c3ccnc4ccccc34)C2)cc1O (stereo unspecified) | 6.031 |
| Cc1cccc2c(NCCc3ccc(O)c(O)c3)ccnc12 | 5.328 |
| Oc1ccc(CCNc2ccnc3cc(Cl)ccc23)cc1O | 6.208 |

| Structure (SMILES) | pIC50 |
| --- | --- |
| COc1ccc(CNc2c3ccccc3nc3ccccc23)cc1OC | 5.979 |
| COc1cccc(CCNc2c3ccccc3nc3ccccc23)c1 | 6.221 |
| Oc1ccc(C2CCN(c3ccnc4ccccc34)CC2)cc1O | 5.887 |
| Oc1ccc(C2CCCN(c3ccnc4ccccc34)C2)cc1O (stereo unspecified) | 5.377 |
| Oc1ccc(CCNc2c3ccccc3nc3ccccc23)cc1 | 6.155 |
| Oc1ccc(CCCNc2c3ccccc3nc3ccccc23)cc1O | 5.432 |
| COc1ccc(CCCNc2c3ccccc3nc3ccccc23)cc1OC | 5.658 |
| COc1ccc(CCNc2cncc3ccccc23)cc1OC | 5.347 |
| CN(CCc1ccc(O)c(O)c1)c1ccnc2ccccc12 | 5.319 |
| NCCNc1c2ccccc2nc2ccccc12 | 6.301 |
| Oc1ccc(CCNC2CCN(Cc3ccccc3)CC2)cc1O | 5.187 |
| COc1cc(Br)c(CCNc2c3ccccc3nc3ccccc23)cc1OC | 6.522 |
| COc1cc(Br)c(CCNc2ccnc3ccccc23)cc1OC | 6.347 |
| COc1cc(Br)c(CCNc2c3c(nc4ccccc24)CCCC3)cc1OC | 5.522 |
| COc1ccc(CCNc2ccnc3cc(Cl)ccc23)cc1OC | 6.18 |
